Reference: ChEMBL document CHEMBL1143536, “QSAR analyses of conformationally restricted 1,5-diaryl pyrazoles as selective COX-2 inhibitors: application of connection table representation of ligands” (Bioorg Med Chem Lett, 2005)

What was measured:
[1] = Ratio of inhibitory concentration against prostaglandin G/H synthase 1 to that of prostaglandin G/H synthase 2
[2] = In vitro inhibitory concentration against Prostaglandin G/H synthase 1 (COX-1)
[3] = target: T1, Prostaglandin G/H synthase 2 (Homo sapiens, UniProt P35354); experiment: In vitro inhibitory concentration against Prostaglandin G/H synthase 2 (COX-2)
T1 sequence (P35354 whole entry): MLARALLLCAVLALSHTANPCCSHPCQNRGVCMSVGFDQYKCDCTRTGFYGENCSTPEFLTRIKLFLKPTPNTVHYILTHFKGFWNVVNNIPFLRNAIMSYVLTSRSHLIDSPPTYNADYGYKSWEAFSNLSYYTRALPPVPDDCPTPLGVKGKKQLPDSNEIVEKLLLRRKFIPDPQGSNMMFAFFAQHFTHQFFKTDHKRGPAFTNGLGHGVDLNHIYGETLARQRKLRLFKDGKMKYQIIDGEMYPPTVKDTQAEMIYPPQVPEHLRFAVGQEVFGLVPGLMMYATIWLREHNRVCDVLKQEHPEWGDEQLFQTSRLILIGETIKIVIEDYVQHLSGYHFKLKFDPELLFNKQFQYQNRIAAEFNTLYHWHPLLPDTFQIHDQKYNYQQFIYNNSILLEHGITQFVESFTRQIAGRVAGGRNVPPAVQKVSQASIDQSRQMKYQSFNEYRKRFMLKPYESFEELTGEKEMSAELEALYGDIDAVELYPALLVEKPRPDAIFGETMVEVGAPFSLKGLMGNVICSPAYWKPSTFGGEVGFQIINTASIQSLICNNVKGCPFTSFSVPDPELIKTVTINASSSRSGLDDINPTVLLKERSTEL

| SMILES | Ratio [1] | Log IC50 [2] | IC50 [3] |
| --- | --- | --- | --- |
| Cc1ccc2c(c1)CSc1c(C(F)(F)F)nn(-c3ccc(S(N)(=O)=O)cc3)c1-2 | 1.56 | -6.1 |  |
| N#Cc1nn(-c2ccc(S(N)(=O)=O)cc2)c2c1SCc1cc(F)ccc1-2 | 0.7 | -6.12 |  |
| NS(=O)(=O)c1ccc(-n2nc(C(F)(F)F)c3c2-c2ccccc2OC3)cc1 | 0.72 | -5.15 |  |
| NS(=O)(=O)c1ccc(-n2nc(C(F)(F)F)c3c2-c2ccc(F)cc2CS3)cc1 | 0.84 | -6.57 |  |
| NS(=O)(=O)c1ccc(-n2nc(C(F)(F)F)c3c2-c2cccc(F)c2CS3)cc1 | 2.47 | -5.2 | 20.9 nM |
| COc1ccc2c(c1)CSc1c(C(F)(F)F)nn(-c3ccc(S(N)(=O)=O)cc3)c1-2 | 1.36 | -6.52 |  |
| COc1ccc2c(c1F)CSc1c(C(F)(F)F)nn(-c3ccc(S(N)(=O)=O)cc3)c1-2 | 2.48 | -5.56 | 8.91 nM |
| NS(=O)(=O)c1ccc(-n2nc(C(F)(F)F)c3c2-c2ccccc2SC3)cc1 |  | -5.01 |  |
| Cc1ccc2c(c1F)CSc1c(C(F)(F)F)nn(-c3ccc(S(N)(=O)=O)cc3)c1-2 | 2.84 | -4.95 | 15.8 nM |
| COc1ccc2c(c1F)CSc1c(C(F)F)nn(-c3ccc(S(N)(=O)=O)cc3)c1-2 |  |  | 32.4 nM |
| COc1ccc2c(c1F)C[S+]([O-])c1c(C(F)(F)F)nn(-c3ccc(S(N)(=O)=O)cc3)c1-2 (stereo not drawn) |  |  | 1510 nM |
| COc1ccc2c(c1F)CSc1c(C(F)(F)F)nn(-c3ccc(S(C)(=O)=O)cc3)c1-2 |  |  | 75.9 nM |
| NS(=O)(=O)c1ccc(-n2nc(C(F)(F)F)c3c2-c2ccccc2CS3)cc1 | 1.3 | -6.4 |  |
| NS(=O)(=O)c1ccc(-n2nc(C(F)(F)F)c3c2-c2ccc(F)c(F)c2CS3)cc1 | 2.58 | -5.57 | 6.03 nM |
